From patent publication US5182378A, “Sulfate derivatives of galactan extracted from Klebsiella” (Roussel Uclaf, priority 1989, dated 1993)

Legend:
[1] = tested on: syncitia formation in co-culture of H 9 III cells (chronically infected) with SUP T1 cells; assay: Inhibition of syncitia (co-culture of H 9 III cells with SUP T1 cells); format: cell-based, HIV; conditions: for Percentage of inhibition (syncitia), H 9 III cells: H 9 III cells pre-incubated with product one night at 37° C. before co-culture; for Percentage of inhibition (syncitia), Sup Ti cells: Sup Ti cells pre-incubated with product one night at 37° C. before co-culture; for Percentage of inhibition (syncitia), Test no. 1 / Percentage of inhibition (syncitia), Test no. 2: co-culture with product without previous incubation
Protocol: The activity of the sulfate derivative of galactan extracted from Klebsiella was determined by measurement of the inhibition of syncitia [Gruters et al, Nature, Vol. 330, p. 74 to 77, (5 Nov. 1987)] and by determination of the protective activity exercised vis-a-vis certain cell cultures.
A co-culture of H 9 III cells (chronically infected 10^5 cells/ml) with SUP T1 cells (non-infected: 2×10^5 cells/ml) was carried out and there was syncitia formation which was counted with a microscope. Each type of cell was pre-incubated or non-preincubated with the studied product for one night at 37° C. If there was no pre-incubation, the studied product was added to cells at the moment the culture was carried out. When there was inhibition of Syncitia formation in the treated cells relative to the control cells, the studied product was protective. The results obtained are shown hereafter.

HIV virus (MT4 cells) = assay: MT4 / MTT test (inhibition of the infection of MT4 cells); format: cell-based; conditions: 7 days at 37° C., MTT reading
Protocol: technique: 100 microliter dilutions of the virus in series in a microtitration plate addition of 100 microliters of cellular suspension containing 5×10^4 MT4 cells culture 7 days at 37° C., 5% CO2 addition of MTT (tetrazolium salt viability coloring agent) incubation 4 hours at 37° C. halting the reaction by the addition of a hydrochloric acid solution in isopropane reading of the optical density (OD) at 540 nm (after dissolution of the crystals).
MT4 cells at 10^6 cells/ml were used and dilution to 1/2 took place with or without the studied product at different concentrations. 100 microliters of HIV virus at different dilutions and 100 microliters of pre-treated cell suspension were introduced onto a microtitration plate. Incubation took place at 37° C. for 7 days and the MTT was added and a reading was taken with a spectrophotometer. The percentage inhibition of the infection of MT4 cells was determined and the results are shown hereafter: […]

HIV virus (H9 cells) = assay: H9 test (reverse transcriptase on supernatant and immunofluorescence on cells); format: cell-based; conditions: D+11; for Reverse Transcriptase % inhibition / Reverse Transcriptase cpm/cm^3 × 10^4: H9 cells supernatant; for Immunofluorescence % fluorescent cells / Immunofluorescence % inhibition: H9 cells
Protocol: H9 cells were used which were treated with polybrene, washed, and taken up in 100 microliters of medium, with or without the studied product at different concentrations. After incubating for 2 hours at 37° C. 100 microliters of HIV virus at 1/10 were added and the mixture was kept for 1 hour at 37° C. and then washed. The cells were taken up in 1 ml of medium with or without the studied product, and distributed into 2 wells, 500 microliters per well and 2×10^5 cells by well. On D+4, 500 microliters of culture medium with or without the studied product were added. On D+8, half of the supernatant was replaced with new medium. On D+11, a quantitative analysis by reverse transcriptase was carried out on the supernatant and an immunofluorescent determination was carried out on the cells. The results are shown hereafter.

Sulfate derivative of the qalactan extracted from Klebsiella [Example 1]
Percentage of inhibition (syncitia), H 9 III cells ([1]; 1 micrograms/cm^3): 17%
Percentage of inhibition (syncitia), Sup Ti cells ([1]; 1 micrograms/cm^3): 23%
Percentage of inhibition (syncitia), Test no. 1 ([1]; 1 micrograms/cm^3): 0%
Percentage of inhibition (syncitia), Test no. 2 ([1]; 1 micrograms/cm^3): 10%
Percentage of inhibition (syncitia), H 9 III cells ([1]; 10 micrograms/cm^3): 23%
Percentage of inhibition (syncitia), Sup Ti cells ([1]; 10 micrograms/cm^3): 27%
Percentage of inhibition (syncitia), Test no. 1 ([1]; 10 micrograms/cm^3): 42%
Percentage of inhibition (syncitia), Test no. 2 ([1]; 10 micrograms/cm^3): 17%
Percentage of inhibition (syncitia), H 9 III cells ([1]; 100 micrograms/cm^3): 100%
Percentage of inhibition (syncitia), Sup Ti cells ([1]; 100 micrograms/cm^3): 100%
Percentage of inhibition (syncitia), Test no. 1 ([1]; 100 micrograms/cm^3): 100%
Percentage of inhibition (syncitia), Test no. 2 ([1]; 100 micrograms/cm^3): 100%
Percentage of inhibition of the infection of MT4 cells (HIV virus (MT4 cells); 1 micrograms/cm^3): 74%
Percentage of inhibition of the infection of MT4 cells (HIV virus (MT4 cells); 10 micrograms/cm^3): 99%
Percentage of inhibition of the infection of MT4 cells (HIV virus (MT4 cells); 100 micrograms/cm^3): 84%
Reverse Transcriptase % inhibition (HIV virus (H9 cells); 1 micrograms/cm^3): 76%
Reverse Transcriptase cpm/cm^3 × 10^4 (HIV virus (H9 cells); 1 micrograms/cm^3): 6.42 cpm/cm^3 × 10^4
Immunofluorescence % fluorescent cells (HIV virus (H9 cells); 1 micrograms/cm^3): 3%
Immunofluorescence % inhibition (HIV virus (H9 cells); 1 micrograms/cm^3): 94%
Reverse Transcriptase % inhibition (HIV virus (H9 cells); 10 micrograms/cm^3): 100%
Reverse Transcriptase cpm/cm^3 × 10^4 (HIV virus (H9 cells); 10 micrograms/cm^3): 1.16 cpm/cm^3 × 10^4
Immunofluorescence % fluorescent cells (HIV virus (H9 cells); 10 micrograms/cm^3): 0%
Immunofluorescence % inhibition (HIV virus (H9 cells); 10 micrograms/cm^3): 100%
Reverse Transcriptase % inhibition (HIV virus (H9 cells); 100 micrograms/cm^3): 100%
Reverse Transcriptase cpm/cm^3 × 10^4 (HIV virus (H9 cells); 100 micrograms/cm^3): 1.12 cpm/cm^3 × 10^4
Immunofluorescence % fluorescent cells (HIV virus (H9 cells); 100 micrograms/cm^3): 0%
Immunofluorescence % inhibition (HIV virus (H9 cells); 100 micrograms/cm^3): 100%
